Laboratory results reported in publication PMC9388736, “Unexpected kinetically controlled organoselenium-based isomaleimide: X-ray structure, hirshfeld surface analysis, 3D energy framework approach, and density functional theory calculation” (Frontiers in Chemistry, 2022).

What was measured:
in vitro = type: cell-based, Murine; conditions: mouse
Description: (§1) The antiproliferative activities of OSe compounds 2, 3, and 4 were assessed against two oligodendrocyte cell lines, namely, 158 N and 158 JP, by the M.T.T. assay using 7-ketocholesterol as reference control (Supporting info, Supplementary Table S1) ([Vejux et al., 2005]; [Nury et al., 2014]). The redox profile of the compounds was evaluated using the H2-DCFDA assay, and their antiapoptotic potential was also assessed by flow cytometry ([Wilhelm et al., 2009]; [Karlsson et al., 2010]; [Shaaban et al., 2018]). Murine oligodendrocytes ([…] and 158JP) were seeded at 240,000 cells per 24-well plates and were grown using the Dulbecco's Modified Eagle Medium supplemented with penicillin antibiotics (1% v/v, streptomycin) and fetal bovine serum (5% v/v) and kept at 37 °C in atmosphere containing 5% CO2. The concentration of 7kc and vitamin E, and the time of treatment were chosen based on data obtained on 7kc treated […] cells. Organoselenium compounds were prepared in DMSO and then diluted with DMEM up to 1 mM. The MTT assay was carried out on […] and 158JP cells after one day of incubation with 7kc (50μM)/different concentrations (0, 1, 10, 20, 50 and 100 μM) of the organic selenides. In live cells, the MTT is reduced to formazan by the succinate dehydrogenase mitochondrial enzyme. The microplate reader Tecan Sunrise (Tecan, Lyon, France) was used for the reading of the plates at 570 nm. The IC50 values and the maximum concentrations without toxicity were estimated for each of the compounds from the respective dose-response curves.

158N cells [1] = test: H2-DCFDA assay of ROS levels by flow cytometry; type: cell-based, Murine; conditions: Mus musculus, ROS level, mean ± SD, * P < 0.05 vs DMSO; for activity at 50 µM: compound at 50 µM, read-out: H2-DCFDA assay (% of control), C3 (50 µM); for activity at 10 µM: compound at 10 µM, read-out: H2-DCFDA assay (% of control), C1 (10 µM); for activity at 20 µM: compound at 20 µM, read-out: H2-DCFDA assay (% of control), C2 (20 µM)
Description: The antiproliferative activities of OSe compounds 2, 3, and 4 were assessed against two oligodendrocyte cell lines, namely, 158 N and 158 JP, by the M.T.T. assay using 7-ketocholesterol as reference control (Supporting info, Supplementary Table S1) ([Vejux et al., 2005]; [Nury et al., 2014]). The redox profile of the compounds was evaluated using the H2-DCFDA assay, and their antiapoptotic potential was also assessed by flow cytometry ([Wilhelm et al., 2009]; [Karlsson et al., 2010]; [Shaaban et al., 2018]). ROS overproduction and O2^•− and were detected with H2-DCFDA assay. Cultured cells were treated with trypsin re-suspended in PBS (10^6 cells/mL) and kept in the dark for half hour at 37 °C with H2-DCFDA at 10 μM and cells were analyzed by flow cytometry. The green fluorescence of 2’,7’- dichlorofluorescein resulting from the oxidation of H2-DCFDA was analyzed by flow cytometry and collected through a 520/10-nm band pass filter. Flomax (Partec) or FlowJo (Tree Star Inc.) software were used for the data analysis.

158JP cells = test: in vitro; type: cell-based, Murine; conditions: for IC50: mouse, 1 day
Description: as §1

158N cells [2] = test: in vitro; type: cell-based, Murine; conditions: for IC50: mouse, 1 day
Description: as §1

158N cells [3] = test: Antiapoptotic effect: Sub-G1 peak by flow cytometry, PI staining, 7kc as apoptosis stimulator; type: cell-based, Murine; conditions: 158N cells stained with P.I., 7kc (50 μM) 24 hours, compound at 50, 10, 5 and 1 μM
Description: Furthermore, the antiapoptotic activities of compounds 2, 3, and 4 were also evaluated by flow cytometry in 158N cells stained with P.I. using 7Kc as apoptosis stimulator and the positive reference (Supporting info, Supplementary Figure S1). […] The N-maleanilic acid 3 amphiphilic characters favor its crossing through the cell membrane and, therefore, its better activity.
The analysis of the cell cycle can reveal a Sub-G1 peak, which is representative of apoptotic cells. Cell cycle analysis was detected on 158N cells stained with Propidium Iodide (PI). Flow cytometric analyses were measured on a Galaxy flow cytometer. Cells were prepared by re-suspension in cold ethanol (80%, −20 °C) for 2 hrs.Cells were then washed withphosphate buffer, and re-suspended in phosphate buffer (300 μL) containing PI (80 μg/mL) and RNase (200 μg/mL) and kept for 1 h at 37°C.PBS 2 mL was then added, and Fluorescence of propidium iodide was recorded using a 590 ± 10 nm band filter. The percentage of cells in different cell cycle phase was manually estimated.
Figure S1. Anti-apoptotic effect of the organoselenium derivative 3 on oligodendrocytes. The anti-apoptotic effect was measured by cytometry using propidium iodide. […]

CC(C)CCC[C@@H](C)[C@H]1CC[C@H]2[C@@H]3C(=O)C=C4C[C@@H](O)CC[C@]4(C)[C@H]3CC[C@]12C [7kc, 7-ketocholesterol, reference compound]
IC50 at 1 day (in vitro; Cytotoxicity assay IC50, 158JP): 74 µM | IC50 at 1 day (in vitro; Cytotoxicity assay IC50, 158N): 37 µM | activity at 50 µM (158N cells [1]): 48 ± 2%

Nc1ccc([Se]Cc2ccc(Br)cc2)cc1 [Compound 2, 4-((4-bromobenzyl)selanyl)aniline]
melting point: 156 to 158 °C | IC50 at 1 day (in vitro; Cytotoxicity assay IC50, 158JP): ≥ 100 µM | IC50 at 1 day (in vitro; Cytotoxicity assay IC50, 158N): ≥ 100 µM | IC50 (158JP cells): > 100 µM | IC50 (158N cells [2]): > 100 µM | activity at 10 µM (158N cells [1]): 36 ± 8% | activity at 20 µM (158N cells [1]): 41 ± 2% | activity at 50 µM (158N cells [1]): 48 ± 2%

O=C(O)C=CC(=O)Nc1ccc([Se]Cc2ccc(Br)cc2)cc1 [Compound 3, 4-((4-((4-bromobenzyl)selanyl)phenyl)amino)-4-oxobut-2-enoic acid]
melting point: 215 to 217 °C | IC50 at 1 day (in vitro; Cytotoxicity assay IC50, 158JP): 50 µM | IC50 at 1 day (in vitro; Cytotoxicity assay IC50, 158N): 29 µM | cytotoxicity (in words) (158JP cells): moderate-low cytotoxicity | cytotoxicity (in words) (158N cells [2]): moderate-low cytotoxicity | formation of SubG1 peak (antiapoptotic activity, in words) (158N cells [3]): lowered, in a concentration-dependent manner, the formation of SubG1 peak | activity at 10 µM (158N cells [1]): 42 ± 10% | activity at 20 µM (158N cells [1]): 36 ± 20% | activity at 50 µM (158N cells [1]): 31 ± 20%

O=C1C=CC(=Nc2ccc([Se]Cc3ccc(Br)cc3)cc2)O1 [Compound 4]
melting point: 185 to 187 °C | IC50 at 1 day (in vitro; Cytotoxicity assay IC50, 158JP): ≥ 100 µM | IC50 at 1 day (in vitro; Cytotoxicity assay IC50, 158N): ≥ 100 µM | IC50 (158JP cells): > 100 µM | IC50 (158N cells [2]): > 100 µM | activity at 10 µM (158N cells [1]): 7 ± 4% | activity at 20 µM (158N cells [1]): 8 ± 4% | activity at 50 µM (158N cells [1]): 11 ± 4%
